According to PubChem BioAssay AID2202555 (NIEHS Division of Translational Toxicology (DTT)):
Results filed as inconclusive are left out. Calls of active or inactive are those of the source. No rule for the calls is given here.

Test system: rat and mouse 2-year carcinogenicity bioassay, tumor evidence
Experiment: Consolidated carcinogenicity assay summary data
[1] = Route (rodents): Interperitoneal

Cc1cn([C@H]2C[C@H](N=[N+]=[N-])[C@@H](CO)O2)c(=O)[nH]c1=O
carcinogen call (Route (rodents): Gavage, Second Route: Administration in utero): active

ClC(Cl)Cl
carcinogen call (Route (rodents): Gavage): active; clear evidence

c1ccncc1
carcinogen call (Route (rodents): Dosed water): active; some evidence

OCC(CO)(CBr)CBr
carcinogen call (Route (rodents): Dosed feed): active; clear evidence

[O]=[Sb][O][Sb]=[O]
carcinogen call (Route (rodents): Inhalation): active; some evidence

[O]=[Cr](=[O])([OH])[O][Cr](=[O])(=[O])[OH]
carcinogen call (Route (rodents): Dosed water): active; clear evidence

C=CC(N)=O
carcinogen call (Route (rodents): Dosed water): active; clear evidence

C=CCOC(=O)CC(C)C
carcinogen call (Route (rodents): Gavage): active; clear evidence

ClC1=C(Cl)C2(Cl)C3C(Cl)C=CC3C1(Cl)C2(Cl)Cl (stereo unspecified)
carcinogen call (Route (rodents): Dosed feed): active; no evidence

Nc1ccc(Sc2ccc(N)cc2)cc1
carcinogen call (Route (rodents): Dosed feed): active; clear evidence

Cc1cc(N=Nc2c(O)ccc3ccccc23)c(S(=O)(=O)O)cc1Cl
carcinogen call (Route (rodents): Dosed feed): active; clear evidence

ClC1=C(Cl)[C@]2(Cl)[C@H]3[C@H]([C@@H]4C=C[C@H]3C4)[C@@]1(Cl)C2(Cl)Cl
carcinogen call (Route (rodents): Dosed feed): active; equivocal evidence

ClC(Cl)=C(Cl)Cl
carcinogen call (Route (rodents): Inhalation): active; clear evidence

Cc1ccc(N)cc1N
carcinogen call (Route (rodents): Dosed feed): active; clear evidence

ClC(Cl)C(Cl)(Cl)Cl
carcinogen call (Route (rodents): Gavage): active; equivocal evidence

O=C1CCc2ccccc2O1
carcinogen call (Route (rodents): Gavage): active; some evidence

CC(C)(C)O
carcinogen call (Route (rodents): Dosed water): active; some evidence

Oc1ccc(Cl)cc1Cc1ccccc1
carcinogen call (Route (rodents): Gavage): active; no evidence

COc1ccc(C)cc1N
carcinogen call (Route (rodents): Dosed feed): active; clear evidence

CCn1c2ccccc2c2cc(N)ccc21
carcinogen call (Route (rodents): Dosed feed): active; clear evidence

O=C/C=C/O
carcinogen call (Route (rodents): Gavage): active; clear evidence

O=C(O)C(Cl)Br (stereo unspecified)
carcinogen call (Route (rodents): Dosed water): active; clear evidence

Nc1nc(N)nc(N)n1
carcinogen call (Route (rodents): Dosed feed): active; clear evidence

S=P(N1CC1)(N1CC1)N1CC1
carcinogen call [1]: active; clear evidence

O=Cc1ccc(CO)o1
carcinogen call (Route (rodents): Gavage): active; no evidence

C[C@]12C/C(=C/O)C(=O)C[C@@H]1CC[C@@H]1[C@@H]2CC[C@@]2(C)[C@H]1CC[C@]2(C)O
carcinogen call (Route (rodents): Gavage): active; equivocal evidence

COC(N)=O
carcinogen call (Route (rodents): Gavage): active; clear evidence

C#CCO
carcinogen call (Route (rodents): Inhalation): active; some evidence

C1CC2OC2CC1C1CO1 (stereo unspecified)
carcinogen call (Route (rodents): Topical): active; clear evidence

c1cc(OCC2CO2)cc(OCC2CO2)c1 (stereo unspecified)
carcinogen call (Route (rodents): Gavage): active; clear evidence

COc1ccc([N+](=O)[O-])cc1N
carcinogen call (Route (rodents): Dosed feed): active; clear evidence

Oc1cc(Cl)ccc1Oc1ccc(Cl)cc1Cl
carcinogen call (Route (rodents): Topical): active

ClC(Cl)Br
carcinogen call (Route (rodents): Gavage, Second Route: Dosed Water): active; clear evidence

O=c1c(-c2ccc(O)cc2)coc2cc(O)cc(O)c12
carcinogen call (Route (rodents): Dosed feed): active; no evidence

ClC(Cl)(Cl)C(Cl)(Cl)Cl
carcinogen call (Route (rodents): Gavage): active; clear evidence

Cc1ccc([N+](=O)[O-])cc1N
carcinogen call (Route (rodents): Dosed feed): active; no evidence

Cc1cnc[nH]1
carcinogen call (Route (rodents): Dosed feed): active; no evidence

Cc1ccccc1N
carcinogen call (Route (rodents): Dosed feed): active; clear evidence

COc1ccc(N)cc1N
carcinogen call (Route (rodents): Dosed feed): active; clear evidence

Cc1ncc[nH]1
carcinogen call (Route (rodents): Dosed feed): active; some evidence

CCOC(=O)C(O)(c1ccc(Cl)cc1)c1ccc(Cl)cc1
carcinogen call (Route (rodents): Dosed feed): active; equivocal evidence

ClC=CCCl
carcinogen call (Route (rodents): Gavage): active; clear evidence

S=C1NCCN1
carcinogen call (Route (rodents): Dosed feed): active; clear evidence

O=C(O)CN(CC(=O)O)CC(=O)O
carcinogen call (Route (rodents): Dosed feed): active; clear evidence

C=CC1CC=CCC1 (stereo unspecified)
carcinogen call (Route (rodents): Gavage): active; inadequate study

CC(CN1CC(=O)NC(=O)C1)N1CC(=O)NC(=O)C1 (stereo unspecified)
carcinogen call [1]: active; no evidence
